Measured values reported in patent US20240358668A1, “METHODS AND CO[…] AM[…] CARD[…] USING (R)-2-AMINO-3-PH[…]” (AXSOME THERAPEUTICS, INC., priority 2021, published 2024).
Marks after values point to notes of the source that are not given here.

What was measured:
[1] = system: participants with narcolepsy or OSA; assay: 1-year OLE study: adverse events; assay type: in vivo, human
Procedure: A 1-year open-label extension (OLE) study was performed with 374 participants to examined whether clinically significant weight loss (≥5%) in this population had favorable effects on biomarkers of cardiovascular risk compared to no such weight loss. The study measured changes in weight and BP (parent study baseline to OLE week 40) and clinical laboratory assessments (OLE baseline to week 40) in participants with narcolepsy (n=124) or OSA (n=250) who received solriamfetol at doses of 75, 150, or 300 mg/d.
Of 374 participants, 96 (25.7%) had ≥5% weight loss; among those without ≥5% weight loss (n=278), 34 (9.1% of total population) had ≥5% weight gain. Demographics were similar in those with and without weight loss (see Table 1 (demographics and baseline characteristics) and Table 2 (additional demographics and baseline characteristics)). […] Participants with weight loss had mean±SD reductions in SBP (−2.6±11.4 mmHg) and DBP (−1.0±9.0 mmHg), whereas participants without weight loss had increases of +0.65±12.5 mmHg and +1.2±8.7 mmHg, respectively (see Table 3 (blood pressure at baseline and week 40), Table 4 (systolic blood pressure (SBP) maximum changes from baseline to week 40), and Table 5 (diastolic blood pressure (DBP) maximum changes from baseline to week 40)). Adverse events are shown in Table 11 (adverse events in ≥5% of Combined Solriamfetol Participants).

[2] = system: adults with EDS associated with OSA; assay: 12-week phase 3 trial in OSA: vital signs, antihypertensive medication use, AEs of hypertension/increased BP; assay type: in vivo, human
Procedure: An exploratory analysis of data from one 12-week randomized, controlled trial (Schweitzer P K, et al. Am J Respir Crit Care Med. 2019; 199(11):1421-31) and 1 long-term open-label extension (OLE) trial in adults with EDS (Epworth Sleepiness Scale score ≥10) associated with OSA (Malhotra A, et al. Sleep. 2020; 43(2):zsz220) was carried out. Participants with current/prior use of primary OSA therapy (positive airway pressure [PAP], oral pressure therapy, oral appliance, or upper airway stimulation) were eligible, regardless of the level of adherence to primary OSA therapy; participants who had not attempted to use primary OSA therapy were excluded. Adherence to primary OSA therapy was defined as PAP use ≥4 hours/night on ≥70% of nights/week, historical report (with investigator concurrence) of oral appliance use on ≥70% of nights, or effective surgical intervention. Nonadherence to primary OSA therapy was defined as device use at a level lower than specific above, no device use at all, or surgical intervention deemed no longer effective. Participants received placebo or solriamfetol 37.5 (12-week trial only), 75, 150, or 300 mg/day for 12 weeks (12-week trial) or ≤40 weeks (OLE trial). Vital signs, antihypertensive medication use, and adverse events (AEs) were monitored throughout the studies. Baseline demographics, CV comorbidities, and concomitant medications, the percentage of participants who initiated antihypertensive medication use during treatment, and the incidence of and discontinuations due to AEs of hypertension/increased BP were summarized for the safety population (participants who received ≥1 dose of study medication).

[3] = Weight loss <5% at Week 40, 75 mg/d
[4] = Weight loss <5% at Week 40, 150 mg/d
[5] = Weight loss <5% at Week 40, 300 mg/d
[6] = Weight loss <5% at Week 40, all doses
[7] = Weight loss ≥5% at Week 40, 75 mg/d
[8] = Weight loss ≥5% at Week 40, 150 mg/d
[9] = Weight loss ≥5% at Week 40, 300 mg/d
[10] = Weight loss ≥5% at Week 40, all doses

With `NC(=O)OC[C@H](N)Cc1ccccc1` [Solriamfetol, (R)-2-amino-3-phenylpropyl carbamate] the “AE of interest: Decreased appetite” value [1, 3] was 1(4.8) n(%), the “Common AEs: Anxiety” value [1, 3] was 0 n(%) and the “Common AEs: Dizziness” value [1, 3] was 2(9.5) n(%). For the same compound, the “Common AEs: Dry mouth” value [1, 3] was 2(9.5) n(%), the “Common AEs: Feeling jittery” value [1, 3] was 2(9.5) n(%) and the “Common AEs: Headache” value [1, 3] was 3(14.3) n(%). For the same compound, the “Common AEs: Influenza” value [1, 3] was 0 n(%), the “Common AEs: Insomnia” value [1, 3] was 4(19.0) n(%) and the “Common AEs: Nasopharyngitis” value [1, 3] was 3(14.3) n(%). The “Common AEs: Nausea” value [1, 3] was 0 n(%), the “Common AEs: Sinusitis” value [1, 3] was 1(4.8) n(%) and the “Common AEs: URTI (Upper Respiratory Tract Infection)” value [1, 3] was 0 n(%). For the same compound, the “AE of interest: Decreased appetite” value [1, 4] was 5(4.8) n(%), the “Common AEs: Anxiety” value [1, 4] was 10(9.5) n(%) and the “Common AEs: Dizziness” value [1, 4] was 2(1.9) n(%). For the same compound, the “Common AEs: Dry mouth” value [1, 4] was 6(5.7) n(%), the “Common AEs: Feeling jittery” value [1, 4] was 7(6.7) n(%) and the “Common AEs: Headache” value [1, 4] was 9(8.6) n(%). The “Common AEs: Influenza” value [1, 4] was 3(2.9) n(%), the “Common AEs: Insomnia” value [1, 4] was 14(13.3) n(%) and the “Common AEs: Nasopharyngitis” value [1, 4] was 14(13.3) n(%). For the same compound, the “Common AEs: Nausea” value [1, 4] was 12(11.4) n(%), the “Common AEs: Sinusitis” value [1, 4] was 2(1.9) n(%) and the “Common AEs: URTI (Upper Respiratory Tract Infection)” value [1, 4] was 6(5.7) n(%). For the same compound, the “AE of interest: Decreased appetite” value [1, 5] was 6(3.9) n(%), the “Common AEs: Anxiety” value [1, 5] was 2(1.3) n(%) and the “Common AEs: Dizziness” value [1, 5] was 4(2.6) n(%). The “Common AEs: Dry mouth” value [1, 5] was 5(3.3) n(%), the “Common AEs: Feeling jittery” value [1, 5] was 7(4.6) n(%) and the “Common AEs: Headache” value [1, 5] was 15(9.9) n(%). For the same compound, the “Common AEs: Influenza” value [1, 5] was 2(1.3) n(%), the “Common AEs: Insomnia” value [1, 5] was 3 (2.0) n(%) and the “Common AEs: Nasopharyngitis” value [1, 5] was 15(9.9) n(%). The “Common AEs: Nausea” value [1, 5] was 8 (5.3) n(%), the “Common AEs: Sinusitis” value [1, 5] was 11(7.2) n(%) and the “Common AEs: URTI (Upper Respiratory Tract Infection)” value [1, 5] was 14(9.2) n(%). For the same compound, the “AE of interest: Decreased appetite” value [1, 6] was 12(4.3) n(%), the “Common AEs: Anxiety” value [1, 6] was 12(4.3) n(%) and the “Common AEs: Dizziness” value [1, 6] was 8(2.9) n(%). For the same compound, the “Common AEs: Dry mouth” value [1, 6] was 13(4.7) n(%), the “Common AEs: Feeling jittery” value [1, 6] was 16(5.8) n(%) and the “Common AEs: Headache” value [1, 6] was 27(9.7) n(%). For the same compound, the “Common AEs: Influenza” value [1, 6] was 5(1.8) n(%), the “Common AEs: Insomnia” value [1, 6] was 21(7.6) n(%) and the “Common AEs: Nasopharyngitis” value [1, 6] was 32(11.5) n(%). The “Common AEs: Nausea” value [1, 6] was 20(7.2) n(%), the “Common AEs: Sinusitis” value [1, 6] was 14(5.0) n(%) and the “Common AEs: URTI (Upper Respiratory Tract Infection)” value [1, 6] was 20(7.2) n(%). For the same compound, the “AE of interest: Decreased appetite” value [1, 7] was 0 n(%), the “Common AEs: Anxiety” value [1, 7] was 0 n(%) and the “Common AEs: Dizziness” value [1, 7] was 0 n(%). The “Common AEs: Dry mouth” value [1, 7] was 1(100) n(%), the “Common AEs: Feeling jittery” value [1, 7] was 0 n(%) and the “Common AEs: Headache” value [1, 7] was 0 n(%). The “Common AEs: Influenza” value [1, 7] was 0 n(%), the “Common AEs: Insomnia” value [1, 7] was 0 n(%) and the “Common AEs: Nasopharyngitis” value [1, 7] was 0 n(%). The “Common AEs: Nausea” value [1, 7] was 0 n(%), the “Common AEs: Sinusitis” value [1, 7] was 0 n(%) and the “Common AEs: URTI (Upper Respiratory Tract Infection)” value [1, 7] was 0 n(%). For the same compound, the “AE of interest: Decreased appetite” value [1, 8] was 0 n(%), the “Common AEs: Anxiety” value [1, 8] was 3(13.6) n(%) and the “Common AEs: Dizziness” value [1, 8] was 2(9.1) n(%). For the same compound, the “Common AEs: Dry mouth” value [1, 8] was 1(4.5) n(%), the “Common AEs: Feeling jittery” value [1, 8] was 2(9.1) n(%) and the “Common AEs: Headache” value [1, 8] was 5(22.7) n(%). The “Common AEs: Influenza” value [1, 8] was 1(4.5) n(%), the “Common AEs: Insomnia” value [1, 8] was 2(9.1) n(%) and the “Common AEs: Nasopharyngitis” value [1, 8] was 0 n(%). For the same compound, the “Common AEs: Nausea” value [1, 8] was 4(18.2) n(%), the “Common AEs: Sinusitis” value [1, 8] was 3(13.6) n(%) and the “Common AEs: URTI (Upper Respiratory Tract Infection)” value [1, 8] was 1(4.5) n(%). For the same compound, the “AE of interest: Decreased appetite” value [1, 9] was 2(2.7) n(%), the “Common AEs: Anxiety” value [1, 9] was 3(4.1) n(%) and the “Common AEs: Dizziness” value [1, 9] was 3(4.1) n(%). For the same compound, the “Common AEs: Dry mouth” value [1, 9] was 7(9.6) n(%), the “Common AEs: Feeling jittery” value [1, 9] was 1(1.4) n(%) and the “Common AEs: Headache” value [1, 9] was 7(9.6) n(%). The “Common AEs: Influenza” value [1, 9] was 5(6.8) n(%), the “Common AEs: Insomnia” value [1, 9] was 5(6.8) n(%) and the “Common AEs: Nasopharyngitis” value [1, 9] was 8(11.0) n(%). The “Common AEs: Nausea” value [1, 9] was 3(4.1) n(%), the “Common AEs: Sinusitis” value [1, 9] was 3(4.1) n(%) and the “Common AEs: URTI (Upper Respiratory Tract Infection)” value [1, 9] was 3(4.1) n(%). The “AE of interest: Decreased appetite” value [1, 10] was 2(2.1) n(%), the “Common AEs: Anxiety” value [1, 10] was 6(6.3) n(%) and the “Common AEs: Dizziness” value [1, 10] was 5(5.2) n(%). For the same compound, the “Common AEs: Dry mouth” value [1, 10] was 9(9.4) n(%), the “Common AEs: Feeling jittery” value [1, 10] was 3(3.1) n(%) and the “Common AEs: Headache” value [1, 10] was 12(12.5) n(%). For the same compound, the “Common AEs: Influenza” value [1, 10] was 6(6.3) n(%), the “Common AEs: Insomnia” value [1, 10] was 7(7.3) n(%) and the “Common AEs: Nasopharyngitis” value [1, 10] was 8(8.3) n(%). The “Common AEs: Nausea” value [1, 10] was 7(7.3) n(%), the “Common AEs: Sinusitis” value [1, 10] was 6(6.3) n(%) and the “Common AEs: URTI (Upper Respiratory Tract Infection)” value [1, 10] was 4(4.2) n(%). For the same compound, the “total participants with AEs of hypertension/increased BP” value ([2]; 12-week study) was 10 participants, the “AE of HTN/increased BP” value ([2]; 12-week study, 37.5 mg) was 0 n (%) and the “Discontinuation due to AE of HTN/increased BP” value ([2]; 12-week study, 37.5 mg) was 0 n (%). The “Initiated anti-HTN” value ([2]; 12-week study, 37.5 mg) was 1 (1.7) n (%), the “AE of HTN/increased BP” value ([2]; 12-week study, 75 mg) was 0 n (%) and the “Discontinuation due to AE of HTN/increased BP” value ([2]; 12-week study, 75 mg) was 0 n (%). The “Initiated anti-HTN” value ([2]; 12-week study, 75 mg) was 0 n (%), the “AE of HTN/increased BP, (%)” value ([2]; 12-week study, 150 mg) was “(4.3) %” and the “Discontinuation due to AE of HTN/increased BP, (%)” value ([2]; 12-week study, 150 mg) was “(0.9)^b %”. The “Initiated anti-HTN” value ([2]; 12-week study, 150 mg) was 1 (0.9) n (%), the “AE of HTN/increased BP, (%)” value ([2]; 12-week study, 300 mg) was “(4.2) %” and the “Discontinuation due to AE of HTN/increased BP” value ([2]; 12-week study, 300 mg) was 0 n (%). For the same compound, the “Initiated anti-HTN” value ([2]; 12-week study, 300 mg) was 2 (1.7) n (%) and the “serious CV AEs” value ([2]; 12-week trial) was “no serious CV AEs”.
